The source of these data is patent US9371319B2, “Pyrrolopyridineamino derivatives as MPS1 inhibitors” (priority 2011, dated 2016).

SMILES strings stand for the structures.

The target of this experiment is T1, full length MPS1 (Homo sapiens, UniProt P33981).
T1 sequence (P33981 1-857): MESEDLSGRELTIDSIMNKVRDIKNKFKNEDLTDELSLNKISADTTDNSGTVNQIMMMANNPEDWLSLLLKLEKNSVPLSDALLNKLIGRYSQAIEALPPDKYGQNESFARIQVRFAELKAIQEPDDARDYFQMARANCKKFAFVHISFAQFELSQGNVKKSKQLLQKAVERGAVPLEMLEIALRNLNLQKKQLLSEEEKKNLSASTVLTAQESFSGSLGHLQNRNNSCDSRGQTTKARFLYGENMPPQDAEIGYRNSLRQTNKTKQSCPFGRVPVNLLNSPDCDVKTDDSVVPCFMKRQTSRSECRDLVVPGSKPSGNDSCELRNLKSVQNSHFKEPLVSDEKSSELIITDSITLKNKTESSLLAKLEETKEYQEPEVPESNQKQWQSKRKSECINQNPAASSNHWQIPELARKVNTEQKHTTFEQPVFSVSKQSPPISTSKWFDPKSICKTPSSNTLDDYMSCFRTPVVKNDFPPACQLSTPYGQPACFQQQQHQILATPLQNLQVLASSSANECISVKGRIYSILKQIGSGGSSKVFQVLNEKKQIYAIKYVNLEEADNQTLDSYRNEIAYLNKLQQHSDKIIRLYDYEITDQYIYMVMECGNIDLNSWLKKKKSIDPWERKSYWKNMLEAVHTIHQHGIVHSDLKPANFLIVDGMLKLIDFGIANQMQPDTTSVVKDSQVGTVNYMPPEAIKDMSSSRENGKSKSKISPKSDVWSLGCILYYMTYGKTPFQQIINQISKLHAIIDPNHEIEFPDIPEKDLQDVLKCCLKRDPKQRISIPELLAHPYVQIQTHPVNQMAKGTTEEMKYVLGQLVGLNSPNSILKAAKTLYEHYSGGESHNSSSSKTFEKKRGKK
In words: biochemical.
As for `COc1cc(C(=O)N2CC(OC)C2)ccc1Nc1cc2[nH]c(-c3cnco3)cc2cn1` [Example 179, (3-Methoxy-4-(2-(oxazol-5-yl)-1H-pyrrolo[3,2-c]pyridin-6-ylamino)phenyl)(3-methoxyazetidin-1-yl)methanone], inhibition was half-maximal at 3 nM (IC50). This counts as single-digit nanomolar.
Take `COc1cc(CN(C)C)ccc1Nc1cc2[nH]c(-c3cnn(C)c3)cc2cn1` [Example 139, N-(4-((dimethylamino)methyl)-2-methoxyphenyl)-2-(1-methyl-1H-pyrazol-4-yl)-1H-pyrrolo[3,2-c]pyridin-6-amine]: the IC50 – broadly, the concentration that inhibits the measured activity by half – is 55 nM.
In turn, `Cn1cc(-c2cc3cnc(Nc4ccccc4Cl)cc3n2CC2CCCCC2)cn1` [Example 67] registered an IC50 of 4880 nM.
As for `Cn1cc(-c2cc3cnc(Nc4ccc(-c5cncn5C)cc4Cl)cc3n2C2CCCC2)cn1` [Example 80], the IC50 was 3 nM.
To `Cc1c(-c2ccc(Nc3cc4c(cn3)cc(-c3cnn(C)c3)n4C(=O)OC(C)(C)C)c(Cl)c2)cnn1C` [Example 20] belongs 7 nM.
To `CNC(=O)c1ccc(Nc2cc3[nH]c(-c4cnn(C)c4)cc3cn2)c(Cl)c1` [Example 134, 3-Chloro-N-methyl-4-(2-(1-methyl-1H-pyrazol-4-yl)-1H-pyrrolo[3,2-c]pyridin-6-ylamino)benzamide] belongs 20 nM.
The compound `COC1CN(C(=O)c2ccc(Nc3cc4c(cn3)cc(-c3cnn(C)c3)n4C(=O)OC(C)(C)C)c(Cl)c2)C1` [Example 37] returned an IC50 of 8 nM.
For `CN(C)C(=O)c1ccc(Nc2cc3c(cn2)cc(-c2cnn(C)c2)n3-c2ccccn2)c(Cl)c1` [Example 94], the IC50 was determined as 78 nM.
With `Cn1cc(-c2cc3cnc(Nc4ccc(S(C)(=O)=O)cc4Cl)cc3[nH]2)cn1` [Example 131, N-(2-Chloro-4-(methylsulfonyl)phenyl)-2-(1-methyl-1H-pyrazol-4-yl)-1H-pyrrolo[3,2-c]pyridin-6-amine], the IC50 came to 24 nM.
Compound `CN1CCN(C(=O)c2ccc(Nc3cc4c(cn3)cc(-c3cnn(C)c3)n4C(=O)OC(C)(C)C)c(Cl)c2)CC1` [Example 41] came in with an IC50 of 8 nM.
As for `Cn1cncc1-c1ccc(Nc2cc3c(cn2)cc(-c2cnco2)n3C(=O)OC(C)(C)C)c(Cl)c1` [Example 91], the IC50 worked out at 6 nM.
To `Cn1cncc1-c1ccc(Nc2cc3[nH]c(-c4cnco4)cc3cn2)c(Cl)c1` [Example 185, N-(2-Chloro-4-(1-methyl-1H-imidazol-5-yl)phenyl)-2-(oxazol-5-yl)-1H-pyrrolo[3,2-c]pyridin-6-amine] belongs 5 nM; to `COc1cc(F)ccc1Nc1cc2[nH]c(-c3cnn(C)c3)cc2cn1` [Example 157, N-(4-Fluoro-2-methoxyphenyl)-2-(1-methyl-1H-pyrazol-4-yl)-1H-pyrrolo[3,2-c]pyridin-6-amine], 119 nM; to `COc1cc(-c2cnc(C)n2C)ccc1Nc1cc2c(cn1)cc(-c1cnn(C)c1)n2C(=O)OC(C)C` [Example 68], 2 nM.
Regarding `Cn1cc(-c2cc3cnc(Nc4ccc(OC(F)F)cc4Cl)cc3[nH]2)cn1` [Example 132, N-(2-Chloro-4-(difluoromethoxy)phenyl)-2-(1-methyl-1H-pyrazol-4-yl)-1H-pyrrolo[3,2-c]pyridin-6-amine], the midpoint of inhibition, the IC50, lay at 288 nM.
`CN(C)C(=O)c1ccc(Nc2cc3c(cn2)cc(-c2cnn(C)c2)n3C(=O)OC(C)(C)C)c(OC(F)(F)F)c1` [Example 3] yielded an IC50 of 6 nM.
`Cn1cc(-c2cc3cnc(Nc4ccc(-c5nccn5C)cc4Cl)cc3n2C(=O)OC(C)(C)C)cn1` [Example 22] showed an IC50 of 3 nM.
To `COc1ccc(-c2ccc(Nc3cc4c(cn3)cc(-c3cnn(C)c3)n4C(=O)OC(C)(C)C)c(Cl)c2)cn1` [Example 48] belongs 16 nM; to `COc1ccc(Nc2cc3[nH]c(-c4cnn(CC(=O)N(C)C)c4)cc3cn2)c(OC)c1` [Example 135, 2-(4-(6-(2,4-Dimethoxyphenylamino)-1H-pyrrolo[3,2-c]pyridin-2-yl)-1H-pyrazol-1-yl)-N,N-dimethylacetamide], 821 nM.
`CC(=O)N1CCN(c2ccc(Nc3cc4[nH]c(-c5cn[nH]c5)cc4cn3)cc2)CC1` [Example 169, 1-(4-(4-(2-(1H-Pyrazol-4-yl)-1H-pyrrolo[3,2-c]pyridin-6-ylamino)phenyl)piperazin-1-yl)ethanone] came in with an IC50 of 80 nM.
Consider `COc1ccccc1Nc1cc2c(cn1)cc(-c1cnco1)n2C(=O)OC(C)(C)C` [Example 96], for which the IC50 was found to be 254 nM.
On to `Cn1cc(-c2cc3cnc(Nc4cccc(OCC#N)c4)cc3n2C(=O)OC(C)(C)C)cn1` [Example 36], for which the IC50 is 156 nM.
To `Cn1cc(-c2cc3cnc(Nc4ccc(S(C)(=O)=O)cc4Cl)cc3n2C(=O)OC(C)(C)C)cn1` [Example 55] belongs 24 nM; to `Cn1cc(-c2cc3cnc(Nc4ccc(-c5cncn5C)cc4Cl)cc3n2C(=O)OC2CCCC2)cn1` [Example 78], 11 nM.
To `Cn1cc(-c2[nH]c3cc(Nc4ccccc4Cl)ncc3c2Cl)cn1` [Example 193, 3-Chloro-N-(2-chlorophenyl)-2-(1-methyl-1H-pyrazol-4-yl)-1H-pyrrolo[3,2-c]pyridin-6-amine] belongs 421 nM; to `Cn1cc(-c2cc3cnc(Nc4ccc(C(=O)N5CC(F)(F)C5)cc4Cl)cc3[nH]2)cn1` [Example 153, (3-Chloro-4-((2-(1-methyl-1H-pyrazol-4-yl)-1H-pyrrolo[3,2-c]pyridin-6-yl)amino)phenyl)(3,3-difluoroazetidin-1-yl)methanone], 21 nM.
`CN(C)C(=O)c1ccc(Nc2cc3c(cn2)cc(-c2cnn(C)c2)n3C(=O)OC2CCC2)c(Cl)c1` [Example 81] yielded an IC50 of 3 nM.
Regarding `Cc1ncc(-c2ccc(Nc3cc4c(cn3)cc(-c3cnn(C)c3)n4C(=O)OC3CCCC3)c(Cl)c2)n1C` [Example 84], it took 2 nM to reach half-maximal inhibition (IC50).
To `FC(F)(F)c1ccc(Nc2cc3[nH]c(-c4cn[nH]c4)cc3cn2)cc1` [Example 161, 2-(1H-Pyrazol-4-yl)-N-(4-(trifluoromethyl)phenyl)-1H-pyrrolo[3,2-c]pyridin-6-amine] belongs 1060 nM.
In the case of `COc1ccc(Nc2cc3[nH]c(-c4cnn(C)c4)cc3cn2)c(F)c1` [Example 155, N-(2-Fluoro-4-methoxyphenyl)-2-(1-methyl-1H-pyrazol-4-yl)-1H-pyrrolo[3,2-c]pyridin-6-amine] it was 53 nM; in that of `COc1cc(C(=O)N2CC(OC)C2)ccc1Nc1cc2[nH]c(-c3cnn(C)c3)cc2cn1` [Example 120, (3-Methoxy-4-(2-(1-methyl-1H-pyrazol-4-yl)-1H-pyrrolo[3,2-c]pyridin-6-ylamino)phenyl)(3-methoxyazetidin-1-yl)methanone], 7 nM; in that of `COCCOc1ccc(Nc2cc3[nH]c(-c4cn[nH]c4)cc3cn2)cc1` [Example 170, N-(4-(2-Methoxyethoxy)phenyl)-2-(1H-pyrazol-4-yl)-1H-pyrrolo[3,2-c]pyridin-6-amine], 9 nM.
In the case of `CN(C)C(=O)c1ccc(Nc2cc3[nH]c(-c4cn[nH]c4)cc3cn2)cc1` [Example 168, 4-(2-(1H-Pyrazol-4-yl)-1H-pyrrolo[3,2-c]pyridin-6-ylamino)-N,N-dimethylbenzamide], half-maximal inhibition (IC50) required 11 nM.
